Legend:
[1] = tested on: HCV GT1a wild type (wt) replicon; assay: Assay Example 2: activity against HCV GT1a wild-type replicon; assay type: cell-based; conditions: Hepatitis C virus, 72 h, Huh-7 cells, transient transfection, 3 days
Experimental: (§1) Cells: Huh-7 cells are liver cancer cell strains (from AppTec, USA), HCV GT1a and GT1b wild type (wt) replicons, GT1b/3a, GT1b/4a, GT1b/5a and GT1b/6a NS5A chimeric replicons.
(§2) Treatment of Compound: According to the assay final concentrations of the compounds in Table 5, DMSO stock solutions of the compounds were diluted and then added to a 96-well assay plate. The final concentration of DMSO was 0.5%.
(§3) The preparation of cells: After replicon plasmid DNA was linearized with a corresponding restriction enzyme, the DNA was transcribed into RNA by using T7 RNA polymerase. Replicon RNA prepared by transcription in vitro was transfected into Huh-7 cells by electroporation. Transfected cells were seeded at a density of 10,000 cells per well into the 96-well assay plate containing the diluted compounds, and then placed in a 37° C. incubator with 5% CO2 and cultured for 3 days.
(§4) Drug activity assay: Luminescence signal value (RLU) was detected with Envision within 15 minutes using the luciferase assay reagent Britelite plus, and the original data (RLU) was used for the calculation of the activity of the compounds.
(§5) The cytotoxicity of the compounds was calculated by using the equation below: Cell Viability %=(CPD−HPE)/(ZPE−HPE)×100%* The activity of the compounds was calculated by using the equation below: Inhibition %=(ZPE−CPD)/(ZPE−HPE)×100%*
(§6) The cell viability percentages (Viability %) and the inhibition percentages (Inhibition %) were imported into GraphPad Prism software, respectively, and curves were fitted by using nonlinear regression method to obtain the corresponding curves of the compounds, and the cytotoxicity (CC50) thereof and the inhibitory activity (EC50) values against the HCV replicon thereof.

[2] = tested on: HCV GT1b/3a NS5A chimeric replicon; assay: Assay Example 2: activity against GT1b/3a NS5A chimeric replicon; assay type: cell-based; conditions: Hepatitis C virus, Huh-7, 72 h, read-out: EC50 Value GT1b/3a-NS5A-wt
Experimental: as §1, §2, §3, §4, §5, §6

[3] = Assay Example 2: cell viability assay (CellTiter-Fluor), GT1b wild-type replicon plate; assay type: cell-based; conditions: human, Huh-7 cells transfected with HCV GT1b wild-type replicon RNA, Huh-7 cells with GT1b wild-type replicon, read-out: CC50 Value GT1b-wt
Experimental: as §1, §2, §3
Cell viability assay: A cell growth fluorescent titration detection reagent CellTiter-Fluor was added to the 96-well plate of the GT1b wild-type replicon. After the cells were cultured for 1 hour in a 37° C. incubator with 5% CO2, the fluorescence signal value (RFU) was detected by Envision, and the original data (RFU) was used for the calculation of the cytotoxicity of the compounds.
as §5, §6

[4] = tested on: HCV GT1b/6a NS5A chimeric replicon; assay: Assay Example 2: activity against GT1b/6a NS5A chimeric replicon; assay type: cell-based; conditions: Hepatitis C virus, Huh-7, 72 h, read-out: EC50 Value GT1b/6a-NS5A-wt
Experimental: as §1, §2, §3, §4, §5, §6

[5] = tested on: GT1a-NS5A-L31V mutant replicon; assay: Assay Example 6: drug resistance, activity against GT1a-NS5A-L31V mutant replicon; assay type: cell-based, hepatitis C virus; conditions: for GT1a-NS5A-L31V Fold change: EC50 mutant versus GT1a-wt; for EC50: Hepatitis C virus, GT1A, Huh-7, 72 h, read-out: GT1a-NS5A-L31V EC50 value
Experimental: (§7) Cells: Huh-7 cells are liver cancer cell strains (from AppTec, USA), HCVGT1a wild-type replicon and GT1a-NS5A-Y93H and GT1a-NS5A-L31V mutant replicons
(§8) Treatment of Compound: According to the assay final concentrations of the compounds in Table 11, DMSO stock solutions of the compounds were diluted and then added to a 96-well assay plate. The final concentration of DMSO was 0.5%.
as §3
(§9) Compound activity assay: Luminescence signal value (RLU) was detected with Envision within 5 minutes by using the luciferase assay reagent Britelite plus, and the original data (RLU) was used for the calculation of the activity of the compounds.
(§10) The activity of the compounds was calculated by using the equation below: Inhibition %=(CPD−ZPE)/(HPE−ZPE)×100%*
(§11) The compound activity percentages (Inhibition %) were imported into GraphPad Prism software, and curves were fitted by using nonlinear regression method to obtain the corresponding curves of the compounds and the inhibitory activity (EC50) values against the HCV replicon thereof.

[6] = Assay Example 3: parallel cytotoxicity assay (alamarBlue) without viral infection; assay type: cell-based; conditions: human, Huh7.5.1 cells without viral infection, no viral infection, read-out: CC50 Value HCVcc
Experimental: (§12) Cells: Huh7.5.1 cells and hepatitis C virus HCVcc (GT2a, JFH-1) infection system.
(§13) Treatment of Compound: According to the assay final concentrations of the compounds in Table 6, DMSO stock solutions of the compounds were diluted and then added to a 96-well assay plate. The final concentration of DMSO was 0.5%.
(§14) Viral infection: Huh7.5.1 cells were seeded in a 96-well cell culture plate, and the cells were cultured overnight at 37° C. in an incubator with 5% CO2 for later use. The compound and the HCVcc virus solution (MOI=0.1) were simultaneously added to the cells, and the virus infection was cultured for 3 days. Parallel cytotoxicity assay was identical to the method for the inhibition of the virus but without viral infection.
Cell viability assay: Cell viability was detected by the addition of alamarBlue assay reagent. The original data (RFU) was used for the calculation of the cytotoxicity of the compounds.
The cytotoxicity of the compounds was calculated by using the equation below: Cell Viability %=CPD/CC×100%*
(§15) The cell viability percentages (Cell Viability %) and the compound activity percentages (Inhibition %) were imported into GraphPad Prism software, respectively, and curves were fitted by using nonlinear regression method to obtain the corresponding curves of the compounds, and the cytotoxicity (CC50) thereof and inhibitory activity (EC50) values against the HCV replicon thereof.

[7] = tested on: HCV GT1a wild-type replicon; assay: Assay Example 6: drug resistance, activity against HCV GT1a wild-type replicon; assay type: cell-based; conditions: Hepatitis C virus, 72 h, Huh-7 cells, transient transfection, 3 days, read-out: GT1a-wt EC50 value
Experimental: as §7, §8, §3, §9, §10, §11

[8] = tested on: HCV GT1b/4a NS5A chimeric replicon; assay: Assay Example 2: activity against GT1b/4a NS5A chimeric replicon; assay type: cell-based; conditions: Hepatitis C virus, Huh-7, 72 h, read-out: EC50 Value GT1b/4a-NS5A-wt
Experimental: as §1, §2, §3, §4, §5, §6

[9] = tested on: HCV GT1b wild type (wt) replicon; assay: Assay Example 2: activity against HCV GT1b wild-type replicon; assay type: cell-based; conditions: Hepatitis C virus, 72 h, Huh-7 cells, transient transfection, 3 days, read-out: EC50 Value GT1b-wt
Experimental: as §1, §2, §3, §4, §5, §6

[10] = tested on: HCV GT1b/5a NS5A chimeric replicon; assay: Assay Example 2: activity against GT1b/5a NS5A chimeric replicon; assay type: cell-based; conditions: Hepatitis C virus, Huh-7, 72 h, read-out: EC50 Value GT1b/5a-NS5A-wt
Experimental: as §1, §2, §3, §4, §5, §6

[11] = tested on: hepatitis C virus HCVcc (GT2a, JFH-1); assay: Assay Example 3: activity against infective hepatitis C virus HCVcc (GT2a, JFH-1); assay type: cell-based; conditions: Huh-7.5.1, 72 h, read-out: EC50 Value GT2a HCVcc
Experimental: as §12, §13, §14
Drug activity assay: The activity of hRLuc was detected by the addition of Renilla luciferase assay reagent. The original data (RLU) was used for the calculation of the activity of the compounds.
The activity of the compounds was calculated by using the equation below: Inhibition %=(CPD−VC)/(CC−VC)×100%*
as §15

[12] = tested on: GT1a-NS5A-Y93H mutant replicon; assay: Assay Example 6: drug resistance, activity against GT1a-NS5A-Y93H mutant replicon; assay type: cell-based, hepatitis C virus; conditions: for GT1a-NS5A-Y93H Fold change: EC50 mutant versus GT1a-wt; for EC50: Hepatitis C virus, GT1A, Huh-7, 72 h, read-out: GT1a-NS5A-Y93H EC50 value
Experimental: as §7, §8, §3, §9, §10, §11

Structure (SMILES)	EC50 [1]	EC50 [2]	CC50 at 3 days [3]	EC50 [4]	GT1a-NS5A-L31V Fold change [5]	EC50 [5]	CC50 at 3 days [6]	EC50 [7]	EC50 [8]	EC50 [9]	EC50 [10]	EC50 [11]	GT1a-NS5A-Y93H Fold change [12]	EC50 [12]
COC(=O)N[C@H](C(=O)N1CCC[C@H]1C(=O)Nc1ccc([C@H]2CC[C@H](c3cc4[nH]c([C@@H]5CCCN5C(=O)[C@@H](NC(=O)OC)[C@@H](C)OC)nc4cc3F)N2c2cc(F)c(N3CC[Si](C)(C)CC3)c(F)c2)cc1)[C@@H](C)OC [Compound 14b]	1.07 pM	6.11 pM	> 200 pM	1.12 pM	11.0	32 pM	> 100 pM	2.9 pM	1.59 pM	2.92 pM	5.37 pM	–	–	–
COC[C@H]1C[C@@H](C(=O)Nc2ccc([C@H]3CC[C@H](c4ccc5nc([C@@H]6CCCN6C(=O)[C@@H](NC(=O)OC)[C@@H](C)OC)[nH]c5c4)N3c3cc(F)c(N4CC[Si](C)(C)CC4)c(F)c3)cc2)N(C(=O)[C@@H](NC(=O)OC)[C@@H](C)OC)C1 [Compound 18b]	–	7.14 pM	> 200 pM	1.75 pM	–	–	> 100 pM	–	–	2.59 pM	4.5 pM	1.15 pM	–	–
COC(=O)N[C@H](C(=O)N1CCC[C@H]1c1nc2cc([C@H]3CC[C@H](c4cc5nc([C@@H]6CCCN6C(=O)[C@@H](NC(=O)OC)[C@@H](C)OC)[nH]c5cc4F)N3c3cc(F)c(N4CC[Si](C)(C)CC4)c(F)c3)c(F)cc2[nH]1)[C@@H](C)OC [Compound 9b]	1.01 pM	3.8 pM	> 200 pM	1.13 pM	0.9	1.7 pM	> 100 pM	2 pM	2.49 pM	5.28 pM	6.08 pM	–	20.0	40 pM
COC(=O)N[C@H](C(=O)N1CCC[C@H]1c1nc2cc([C@H]3CC[C@H](c4ccc5[nH]c([C@@H]6CCCN6C(=O)[C@@H](NC(=O)OC)[C@@H](C)OC)nc5c4)N3c3cc(F)c(N4CC[Si]5(CCCC5)CC4)c(F)c3)ccc2[nH]1)[C@@H](C)OC [Compound 7b]	1.44 pM	10.3 pM	> 200 pM	–	3.4	6.1 pM	–	1.8 pM	–	3.3 pM	–	–	502	903 pM
COC(=O)N[C@H](C(=O)N1CCCC1C(=O)Nc1ccc([C@H]2CC[C@H](c3ccc(-c4cnc([C@@H]5CCCN5C(=O)[C@@H](NC(=O)OC)[C@@H](C)OC)[nH]4)cc3)N2c2cc(F)c(N3CC[Si](C)(C)CC3)c(F)c2)cc1)[C@@H](C)OC (stereo partly drawn) [Compound 8b, Methyl ((2S,3R)-1-((S)-2-((4-((2R,5R)-1-(4-(4,4-dimethylazasilinan-1-yl)-3,5-difluorophenyl-5-(4-(2-((S)-1-(N-methoxycarbonyl)-O-methyl-L-threonyl)pyrrolidin-2-yl)-1H-imidazazol-5-yl)phenyl)pyrrolidin-2-yl)phenyl)carbamoyl)pyrrolidin-1-yl)-3-methoxy-1-oxobutan-2-yl)carbamate]	–	67.9 pM	> 200 pM	6.73 pM	–	–	–	–	–	1.59 pM	–	–	–	–
COC[C@H]1C[C@@H](C(=O)Nc2ccc([C@H]3CC[C@H](c4cc5[nH]c([C@@H]6CCCN6C(=O)[C@@H](NC(=O)OC)[C@@H](C)OC)nc5cc4F)N3c3cc(F)c(N4CC[Si](C)(C)CC4)c(F)c3)cc2)N(C(=O)[C@@H](NC(=O)OC)[C@@H](C)OC)C1 [Compound 17b]	–	5.71 pM	> 200 pM	1.09 pM	–	–	> 100 pM	–	1.66 pM	3.06 pM	4.66 pM	2.68 pM	–	–

Source: US10766912B2 (priority 2017, dated 2020)
